From the NIST ThermoML archive (doi:10.1016/j.jct.2016.05.019)
Values joined by “and” are separate entries in the source; they are usually repeats but may differ in a detail not shown here. Equal entries are not always repeated.

Conditions: Liquid; for mass density: Bellows volumetry

CCC(C)C [2-methylbutane]
Conditions | mass density
360 K, 70000 kPa | 638.43 kg/m3
360 K, 80000 kPa | 645.89 kg/m3
360 K, 90000 kPa | 652.93 kg/m3
360 K, 100000 kPa | 659.45 kg/m3
360 K, 120000 kPa | 671.11 kg/m3
360 K, 140000 kPa | 681.34 kg/m3
360 K, 160000 kPa | 691.16 kg/m3
360 K, 180000 kPa | 699.47 kg/m3
360 K, 200000 kPa | 708.18 kg/m3
368.12 K, 98070 kPa | 653.72 kg/m3
368.12 K, 147100 kPa | 681.34 kg/m3
368.12 K, 196130 kPa | 703.04 kg/m3
380 K, 846 kPa | 518.39 kg/m3
380 K, 857 kPa | 518.44 kg/m3
380 K, 962 kPa | 518.87 kg/m3
380 K, 1000 kPa | 518.39 kg/m3
380 K, 1001 kPa | 519.03 kg/m3
380 K, 2000 kPa | 522.38 kg/m3
380 K, 3000 kPa | 526.02 kg/m3
380 K, 5000 kPa | 532.71 kg/m3
380 K, 10000 kPa | 546.59 kg/m3
380 K, 20000 kPa | 567.43 kg/m3
380 K, 30000 kPa | 583.41 kg/m3
380 K, 40000 kPa | 596.53 kg/m3
380 K, 50000 kPa | 607.73 kg/m3
380 K, 60000 kPa | 617.61 kg/m3
380 K, 70000 kPa | 626.4 kg/m3
380 K, 80000 kPa | 634.41 kg/m3
380 K, 90000 kPa | 641.88 kg/m3
380 K, 100000 kPa | 648.74 kg/m3
380 K, 120000 kPa | 661.13 kg/m3
380 K, 140000 kPa | 672.14 kg/m3
380 K, 160000 kPa | 682.07 kg/m3
380 K, 180000 kPa | 691.12 kg/m3
380 K, 200000 kPa | 699.6 kg/m3
400 K, 1250 kPa | 487.6 kg/m3
400 K, 1309 kPa | 487.97 kg/m3
400 K, 1506 kPa | 489.2 kg/m3
400 K, 1611 kPa | 489.83 kg/m3
400 K, 2000 kPa | 491.59 kg/m3 and 492.12 kg/m3
400 K, 3000 kPa | 497.03 kg/m3
400 K, 5000 kPa | 506.33 kg/m3
400 K, 10000 kPa | 524.35 kg/m3
400 K, 20000 kPa | 549.47 kg/m3
400 K, 30000 kPa | 567.78 kg/m3
400 K, 40000 kPa | 582.37 kg/m3
400 K, 50000 kPa | 594.58 kg/m3
400 K, 60000 kPa | 605.35 kg/m3
400 K, 70000 kPa | 614.87 kg/m3
400 K, 80000 kPa | 623.43 kg/m3
400 K, 90000 kPa | 631.33 kg/m3
400 K, 100000 kPa | 638.47 kg/m3
400 K, 120000 kPa | 651.4 kg/m3
400 K, 140000 kPa | 662.94 kg/m3
400 K, 160000 kPa | 673.54 kg/m3
400 K, 180000 kPa | 682.87 kg/m3
400 K, 200000 kPa | 691.58 kg/m3
410 K, 1519 kPa | 470.27 kg/m3
410 K, 1623 kPa | 471.11 kg/m3
410 K, 2000 kPa | 474.02 kg/m3
420 K, 1789 kPa | 450.66 kg/m3
420 K, 1800 kPa | 450.78 kg/m3
420 K, 1904 kPa | 451.92 kg/m3
420 K, 2000 kPa | 452.61 kg/m3 and 452.93 kg/m3
420 K, 3000 kPa | 461.88 kg/m3
420 K, 5000 kPa | 476.16 kg/m3
420 K, 10000 kPa | 500.48 kg/m3
420 K, 20000 kPa | 530.77 kg/m3
420 K, 30000 kPa | 551.51 kg/m3
420 K, 40000 kPa | 567.85 kg/m3
420 K, 50000 kPa | 581.15 kg/m3
420 K, 60000 kPa | 592.84 kg/m3
420 K, 70000 kPa | 602.84 kg/m3
420 K, 80000 kPa | 612.1 kg/m3
420 K, 90000 kPa | 620.5 kg/m3
420 K, 100000 kPa | 628.24 kg/m3
420 K, 120000 kPa | 641.97 kg/m3
420 K, 140000 kPa | 653.97 kg/m3
420 K, 160000 kPa | 664.82 kg/m3
420 K, 180000 kPa | 674.63 kg/m3
420 K, 200000 kPa | 683.74 kg/m3
440 K, 3000 kPa | 412.99 kg/m3
440 K, 5000 kPa | 439.7 kg/m3
440 K, 10000 kPa | 474.4 kg/m3
440 K, 20000 kPa | 511.64 kg/m3
440 K, 30000 kPa | 535.46 kg/m3
440 K, 40000 kPa | 553.42 kg/m3
440 K, 50000 kPa | 568.08 kg/m3
440 K, 60000 kPa | 580.59 kg/m3
440 K, 70000 kPa | 591.44 kg/m3
440 K, 80000 kPa | 601.22 kg/m3
440 K, 90000 kPa | 610.1 kg/m3
440 K, 100000 kPa | 618.08 kg/m3
440 K, 120000 kPa | 632.51 kg/m3
440 K, 140000 kPa | 645.06 kg/m3
440 K, 160000 kPa | 656.44 kg/m3
440 K, 180000 kPa | 666.6 kg/m3
440 K, 200000 kPa | 676.01 kg/m3

Conditions | mass density [kg/m3] | vapor or sublimation pressure [kPa]
360 K | 544.8 | 538
380 K | 518.31 | 835
400 K | 487.34 | 1238
410 K | 469.93 | 1487
420 K | 450.21 | 1772
